Test results reported in patent publication US20230055457A1, “CELL EXPANSION METHODS FOR PREVENTING CELL SENESCENCE AND PRESERVING THE THERAPEUTIC POTENCY OF HUMAN MESENCHYMAL STEM CELLS” (THE FLORIDA STATE UNIVERSITY RESEARCH FOUNDATION, INC., priority 2020, published 2023).
Entries after “also recorded” stand apart in the source; their conditions may differ.

Legend:
senescent hMSCs [1] = assay: Colony forming unit-fibroblast (CFU-F) assay; assay type: cell-based, human; conditions: senescent hMSCs with NAM treatment
Protocol: Colony forming unit-fibroblast (CFU-F) were determined as following: hMSCs were harvested and re-plated at the density of 15 cells/cm2 on 60 cm2 culture dish and cultured for another 14 days in CCM. Cells were then stained with 20% crystal violet solution in methanol for 15 minutes at room temperature (RT) and washed with phosphate-buffered saline (PBS) wash, the numbers of individual colonies were counted manually.

senescent hMSCs [2] = assay: Mitophagy measurement; assay type: cell-based, human; conditions: senescent hMSCs with NAM treatment
Protocol: (§1) For autophagy measurement, aliquots of cell suspension were incubated with 20 μM Cyto-ID Green (Enzo Life Sciences, Farmingdale, N.Y.), a fluorescent dye that selectively labels accumulated autophagic vacuoles, at 37° C. for 30 minutes, and analyzed by flow cytometry (BD Biosciences, San Jose, Calif.). For mitophagy measurement, […]

hMSC = assay: Mitochondrial fitness of hMSCs; assay type: cell-based, human
Protocol: (§2) hMSCs at passage 2 were expanded and cultured in complete culture medium(CCM). Cells were grown to 70-80% confluence and then harvested by incubation with 0.25% trypsin/EDTA. Harvested cells were re-plated at a density of 2,000 cells/cm^2 and sub-cultured up to Passage 12 in a standard CO2 incubator. hMSC sat Passage 5 (P5) and passage 12 (P12) were used for experiments. Stem cell properties including senescence, stem cell gene, cell cycle, proliferation rate were determined. Gas chromatography-mass spectrometry (GC-MS) and seahorse flux analyzer were used for characterization of energy metabolism phenotype. Mitochondrial functions were assessed by mitochondrial mass, membrane potential, electron transport complex activity and biogenesis. NAD+/NADH and Sirt-1 and -3 level was also measured in P5 and P12 hMSCs. NAD+ precursor nicotinamide (NAM) was used in CCM to adjust NAD+ level intracellularly.

senescent hMSCs [3] = assay: Cellular senescence by SA-β-Gal activity assay; assay type: cell-based, human; conditions: senescent hMSCs with NAM treatment
Protocol: Cellular senescence was evaluated by SA-β-Gal activity assay kit (Sigma, St. Louis, Mo.) as described in manufacture instructions.

[4] = tested on: electron transport chain complex I; assay: Mitochondrial complex I (ETC-I) activity; assay type: cell-based, human; conditions: senescent hMSCs with NAM treatment
Protocol: hMSCs were centrifuged, re-suspended in DI water, and heated immediately in a boiling water bath for 15 minutes. The mixture was centrifuged and ATP containing supernatant was collected. Upon measurement, 10 μL of ATP solution was mixed with 100 μL of the luciferin-luciferase reagent, and the bioluminescent signal was measured using an Orion Microplate Luminometer (Bad Wildbad, Deutschland) after 15 min incubation at room temperature. Activity of mitochondrial complex I was determined using the Complex I Enzyme Activity Microplate Assay Kit (Abcam, Cambridge, Mass.) according to the kit instructions.

senescent hMSCs [5] = assay: Basal autophagy by Cyto-ID Green flow cytometry; assay type: cell-based, human; conditions: senescent hMSCs with NAM treatment
Protocol: as §1

senescent hMSCs [6] = assay: Intracellular NAD+ and NADH level of hMSCs; assay type: cell-based, human
Protocol: as §2

senescent hMSCs [7] = assay: Mitochondrial membrane potential (MMP), TMRM flow cytometry; assay type: cell-based, human; conditions: senescent hMSCs with NAM treatment
Protocol: For MMP measurement, trypsinized MSCs were washed by centrifugation in warm Hank's Balanced Salt Solution (HBSS). Cell suspension was incubated with tetramethylrhodamine, methyl ester (TMRM) (Molecular Probe, Eugene, Oreg.) at 37° C., washed with HBSS, and analyzed by flow cytometry (BD Biosciences, San Jose, Calif.).

[8] = tested on: muscle stem cells (muscle-SCs) and hematopoietic stem cells (HSC); conditions: aged muscle-SCs and HSCs, restoring autophagy; cited from earlier work
[9] = continuous supplement of NAM (1 mM), FIG. 17

NC(=O)c1cccnc1 [NAM, nicotinamide]
colony forming ability (senescent hMSCs [1]; in words): improved
colony forming ability of hMSCs (CFU-F) (senescent hMSCs [1]; control 3 CFU): 11 CFU
mitophagy (senescent hMSCs [2]): restored; also recorded: increased
mitochondrial fitness (hMSC; [9]): maintains
recovery of mitochondria (hMSC; senescent hMSCs, supplement of NAM): recovery
hMSC senescence, SA-β-gal activity (senescent hMSCs [3]): decreased; also recorded: reduced
ETC-I activity [4]: enhanced; also recorded: increased
Basal autophagy level (senescent hMSCs [5]): restored; also recorded: increased
hMSC cellular NAD+ level (senescent hMSCs [6]; [9]): maintains
Cellular NAD+ level (senescent hMSCs [6]; late passage hMSCs with culture-induced senescence, 96 h of NAM treatment): significantly increased; also recorded: potential improvement
boosting intracellular NAD+ level, NAM compared to NMN (senescent hMSCs [6]; stem cells in culture, FIG. 16): better
boosting intracellular NAD+ level, NAM compared with NR (senescent hMSCs [6]; stem cells in culture, FIG. 16): no significant difference
mitochondrial membrane potential (MMP) (senescent hMSCs [7]): enhanced; also recorded: increased

NC(=O)c1ccc[n+]([C@@H]2O[C@H](COP(=O)([O-])O)[C@@H](O)[C@H]2O)c1 [NMN, nicotinamide mononucleotide]
boosting intracellular NAD+ level, NAM compared to NMN (senescent hMSCs [6]; stem cells in culture, FIG. 16): NAM is better

NC(=O)c1ccc[n+]([C@@H]2O[C@H](CO)[C@@H](O)[C@H]2O)c1 [NR, nicotinamide riboside]
boosting NAD+/NADH ratio, NAM compared with NR (senescent hMSCs [6]; stem cells in culture, FIG. 16): no significant difference
boosting intracellular NAD+ level, NAM compared with NR (senescent hMSCs [6]; stem cells in culture, FIG. 16): no significant difference

NCCCCNCCCN [spermidine]
stem cell functions in vivo [8]: restored
